Test results as given in ChEMBL document CHEMBL3046642, “17-Oximino-5-androsten-3-yl esters: synthesis, antiproliferative activity, acute toxicity, and effect on serum androgen level” (Med Chem Res, 2011).
Calls of active or inactive are those of the source. No cut-off for these calls is given here.

How the values were obtained:
[1] = tested on: DU-145; test: Growth inhibition of Homo sapiens (human) DU145 cells at 0.5 ug/ml after 48 hr by MTT assay; format: functional; conditions: for inhibition of growth at 0.5 µg/mL: DU-145, 48 h, read-out: GI
[2] = tested on: DU-145; test: Growth inhibition of Homo sapiens (human) DU145 cells at 2 ug/ml after 48 hr by MTT assay; format: functional; conditions: for inhibition of growth at 2 µg/mL: DU-145, 48 h, read-out: GI
[3] = Cytotoxicity against Mus musculus Balb/c (mouse) macrophages after 24 hr by MTT assay; format: cell-based, Macrophage; conditions: read-out: LC50
[4] = tested on: DU-145; test: Growth inhibition of Homo sapiens (human) DU145 cells at 5 ug/ml after 48 hr by MTT assay; format: functional; conditions: for inhibition of growth at 5 µg/mL: DU-145, 48 h, read-out: GI
[5] = tested on: DU-145; test: Cytotoxicity against Homo sapiens (human) DU145 cells after 48 hr by MTT assay; format: functional, cell-based
[6] = tested on: DU-145; test: Growth inhibition of Homo sapiens (human) DU145 cells at 0.01 ug/ml after 48 hr by MTT assay; format: functional; conditions: for inhibition of growth at 0.01 µg/mL: DU-145, 48 h, read-out: GI
[7] = tested on: DU-145; test: Growth inhibition of Homo sapiens (human) DU145 cells at 1 ug/ml after 48 hr by MTT assay; format: functional; conditions: for inhibition of growth at 1 µg/mL: DU-145, 48 h, read-out: GI
[8] = tested on: Rattus norvegicus; test: Inhibition of 5alpha-reductase in Rattus norvegicus Sprague-Dawley (rat) assessed as increase in serum testosterone at 40 mg/kg, ip after 6 hr by ELISA; format: functional, organism-based; parameters: dose 40 mg/kg
[9] = Homo sapiens, DU-145, 48 h, read-out: IC50

| SMILES | inhibition of growth at 0.5 µg/mL [1] [%] | inhibition of growth at 2 µg/mL [2] [%] | CC50 at 24 h [3] [µM] | inhibition of growth at 5 µg/mL [4] [%] | IC50 [5, 9] [µM] | inhibition of growth at 0.01 µg/mL [6] [%] | inhibition of growth at 1 µg/mL [7] [%] | inhibition [8] | growth inhibition (GI) [1] | growth inhibition (GI) [2] | growth inhibition (GI) [4] | growth inhibition (GI) [6] | growth inhibition (GI) [7] | IC50 ([5]; du-145) |
| --- | --- | --- | --- | --- | --- | --- | --- | --- | --- | --- | --- | --- | --- | --- |
| COc1ccc(C(=O)O[C@H]2CC[C@@]3(C)C(=CC[C@@H]4[C@@H]3CC[C@]3(C)/C(=N/O)CC[C@@H]43)C2)cc1 | 51.4 | 65.6 | 14 | 69.5 | 5.4 | 30.7 | 59.2 | inactive |  |  |  |  |  |  |
| C[C@]12CC[C@H](OC(=O)Cc3ccccc3)CC1=CC[C@@H]1[C@@H]2CC[C@]2(C)/C(=N/O)CC[C@@H]12 |  |  | 11.8 |  | 6.5 |  |  | Active | inactive | inactive | inactive | inactive | inactive |  |
| C[C@]12CC[C@H](O)CC1=CC[C@@H]1[C@@H]2CC[C@]2(C)/C(=N/O)CC[C@@H]12 |  |  |  |  |  |  |  | Active | inactive | inactive | inactive | inactive | inactive | Not Active |
| C[C@]12CC[C@H](OC(=O)c3ccc([N+](=O)[O-])cc3)CC1=CC[C@@H]1[C@@H]2CC[C@]2(C)/C(=N/O)CC[C@@H]12 |  |  | 19.5 | 81.5 | 3.07 |  |  | Active |  |  |  |  |  |  |
| CC(C)(C)NC(=O)[C@H]1CC[C@H]2[C@@H]3CC[C@H]4NC(=O)C=C[C@]4(C)[C@H]3CC[C@]12C [FINASTERIDE] |  | 36 | 28.2 | 78.5 |  | 5 |  | Active |  |  |  |  |  |  |
| C[C@]12CC[C@H](OC(=O)c3ccc(Cl)cc3)CC1=CC[C@@H]1[C@@H]2CC[C@]2(C)/C(=N/O)CC[C@@H]12 |  |  | 24 | 84.5 | 3.4 |  |  | Active |  |  |  |  |  |  |
| C[C@]12CC[C@H](OC(=O)CCl)CC1=CC[C@@H]1[C@@H]2CC[C@]2(C)/C(=N/O)CC[C@@H]12 | 55 | 56 | 28 | 59.2 | 4.8 | 53 | 56 | Active |  |  |  |  |  |  |
| C[C@]12CC[C@H](OC(=O)c3ccc(O)cc3)CC1=CC[C@@H]1[C@@H]2CC[C@]2(C)/C(=N/O)CC[C@@H]12 |  |  | 22 | 91.5 | 2.9 |  |  | inactive |  |  |  |  |  |  |
| Cc1ccc(C(=O)O[C@H]2CC[C@@]3(C)C(=CC[C@@H]4[C@@H]3CC[C@]3(C)/C(=N/O)CC[C@@H]43)C2)cc1 |  |  | 22 | 92.9 | 2.3 |  |  | Active |  |  |  |  |  |  |
| C[C@]12CC[C@H](OC(=O)c3ccc(N)cc3)CC1=CC[C@@H]1[C@@H]2CC[C@]2(C)/C(=N/O)CC[C@@H]12 |  |  | 29.4 | 91 | 3.7 |  |  | Active |  |  |  |  |  |  |
| C[C@]12CC[C@H](OC(=O)c3ccccc3)CC1=CC[C@@H]1[C@@H]2CC[C@]2(C)/C(=N/O)CC[C@@H]12 |  |  | 89.4 | 91.1 | 3.8 |  |  | Active |  |  |  |  |  |  |
| C[C@]12CC[C@H](OC(=O)COc3ccccc3)CC1=CC[C@@H]1[C@@H]2CC[C@]2(C)/C(=N/O)CC[C@@H]12 |  |  | 89 |  | 6.3 |  |  | Active |  |  |  |  |  |  |
